The CombiSolv-Exp solvation set (Vermeire and Green 2021)

Assay: solvent given as SMILES

COC(C)=O
Conditions | solvation free energy, 298 K [kcal/mol]
in C=CCCCCCCC=C | -3.23
in CC(=O)N(C)C | -3.82
in CC(C)=O | -4.12
in CC(C)CCCC(C)CCCC(C)CCCCC(C)CCCC(C)CCCC(C)C | -2.53
in CC(C)O | -3.36
in CCC1CO1 | -4.01
in CCCCC(CC)COC(=O)CCCCC(=O)OCC(CC)CCCC | -3.19
in CCCCCC | -2.93
in CCCCCCC | -2.78
in CCCCCCCC | -2.88
in CCCCCCCCC=CCCCCCCCC(=O)OCC(COC(=O)CCCCCCCC=CCCCCCCCC)OC(=O)CCCCCCCC=CCCCCCCCC | -3.22
in CCCCCCCCCC | -2.8
in CCCCCCCCCCCCCCCC | -2.63
in CCCCCCCCO | -3.15
in CCCCN(C=O)CCCC | -3.48
in CCOC(=O)c1ccccc1C(=O)OCC | -3.48
in CCOCCO | -3.69
in CCOP(=O)(OCC)OCC | -3.75
in CN1CCCC1=O | -3.72
in CN1CCCCC1=O | -3.72
in CN1CCN(C)C1=O | -3.55
in CN(C)C=O | -3.9
in CNC(C)=O | -3.62
in CO | -3.96
in COP(=O)(OC)OC | -3.94
in CS(C)=O | -3.53
in NC=O | -3.27
in O | -3.14
in O=CN1CCOCC1 | -3.58
in OCCOCCO | -3.32
in [2H]O[2H] | -3.17
in c1ccc2ncccc2c1 | -3.51

CCCC(=O)O
Conditions | solvation free energy, 298 K [kcal/mol]
in C=CCCCCCCC=C | -4.39
in C=CCCCCCCCCCCCCCC | -3.94
in O | -6.34

CCCCC(=O)CCCC
Conditions | solvation free energy, 298 K [kcal/mol]
in O | -2.64

Cc1ccc(C)cc1
Conditions | solvation free energy, 298 K [kcal/mol]
in CC#N | -5.16
in CC(C)CC(C)(C)C | -5.39
in CC(C)CO | -4.94
in CC(O)CO | -4.14
in CCCCCCC | -5.45
in CCCCCCCCCCCCCCCC | -5.27
in CCCCCCCCO | -5.17
in CCCCOC(C)=O | -6.1
in CCO | -5.09
in CNC=O | -4.8
in COCCO | -5.06
in ClC(Cl)(Cl)Cl | -5.73
in ClCCCl | -5.96
in NC=O | -3.27
in NCCO | -3.84
in O | -0.75
in O=CN1CCOCC1 | -4.98
in OCCO | -3.4
in OCCOCCO | -4.23
in OCCOCCOCCO | -4.37

CCNc1nc(NCC)nc(OC)n1
Conditions | solvation free energy, 298 K [kcal/mol]
in O | -10.6

CCCCCCCCCCCCCCCCCCCCCCCCCC
Conditions | solvation free energy, 298 K [kcal/mol]
in CC(=O)N(C)C | -17.6
in CC(C)(C)O | -15.8
in CN(C)C=O | -17.8
in O | 5.59

c1ccc2c(c1)Oc1ccccc1O2
Conditions | solvation free energy, 298 K [kcal/mol]
in O | -3.15

C=C(C)C(=C)C
Conditions | solvation free energy, 298 K [kcal/mol]
in CN1CCCC1=O | -3.55
in CN(C)C=O | -3.53
in O | 0.4
in OCCO | -1.73
in OCCOCCO | -2.47
in OCCOCCOCCO | -2.49

COC(=O)CCl
Conditions | solvation free energy, 298 K [kcal/mol]
in O | -4

CCCN(CCC)c1c([N+](=O)[O-])cc(S(C)(=O)=O)cc1[N+](=O)[O-]
Conditions | solvation free energy, 298 K [kcal/mol]
in O | -7.98

O=C(O)c1cccc(C(=O)O)c1
Conditions | solvation free energy, 298 K [kcal/mol]
in CC(C)O | -13.8
in CCC(C)O | -13.3
in CCCCCCO | -13.2
in CCCCO | -13.5
in CCCO | -13.6
in CCCOC(C)=O | -12.5
in CN1CCCC1=O | -15.5
in CO | -14.1
in O | -11.3

CCCBr
Conditions | solvation free energy, 298 K [kcal/mol]
in C=CCCCCCCCCCCCCCC | -3.56
in ClC(Cl)(Cl)Cl | -4.17
in O | -0.56

CC1=CCC(=C(C)C)CC1
Conditions | solvation free energy, 298 K [kcal/mol]
in O | 0.16

CCCCCCCCCOC(=O)c1ccccc1C(=O)OCCCC
Conditions | solvation free energy, 298 K [kcal/mol]
in O | -6.67

Clc1ccccc1
Conditions | solvation free energy, 298 K [kcal/mol]
in C1CCOC1 | -6.04
in C1COCCO1 | -5.78
in CC(=O)N(C)C | -5.01
in CC(C)(C)O | -5.03
in CC(C)=O | -5.65
in CC(C)CC(C)(C)C | -4.92
in CC(C)CCO | -5.12
in CC(C)CO | -5.09
in CC(C)O | -4.92
in CC(O)CO | -4.36
in CCC(C)O | -5.09
in CCCCCC | -5.21
in CCCCCCC | -5.17
in CCCCCCCCCC | -4.93
in CCCCCCCCCCCCCCCC | -4.94
in CCCCCO | -5.21
in CCCCCl | -5.59
in CCOC(C)=O | -5.66
in CN(C)C=O | -5.66
in CNC(C)=O | -5.17
in CO | -5.01
in COCCO | -5.23
in Cc1ccc(C)cc1 | -5.52
in Cc1ccccc1C | -5.59
in ClCCl | -5.91
in N#Cc1ccccc1 | -5.63
in NC=O | -3.58
in O | -1.14
in OCCO | -3.88

CCNc1nc(NCC)nc(SC)n1
Conditions | solvation free energy, 298 K [kcal/mol]
in O | -10.1

C=CC(C)(CCC=C(C)C)OC(=O)CCC (configuration not stated)
Conditions | solvation free energy, 298 K [kcal/mol]
in O | -3.38

COC(=O)CC#N
Conditions | solvation free energy, 298 K [kcal/mol]
in O | -6.72

Cc1cc(NS(=O)(=O)c2ccc(N)cc2)no1
Conditions | solvation free energy, 298 K [kcal/mol]
in O | -17.8

CCCCOC(=O)c1ccccc1C(=O)OCc1ccccc1
Conditions | solvation free energy, 298 K [kcal/mol]
in O | -9.55

CC(C)CCOC=O
Conditions | solvation free energy, 298 K [kcal/mol]
in O | -2.13

Cn1c(=O)c2c(ncn2C)n(C)c1=O
Conditions | solvation free energy, 298 K [kcal/mol]
in O | -12.6

CCCCCCCC=O
Conditions | solvation free energy, 298 K [kcal/mol]
in CCCCCCCCCCCCCCCC | -5.82
in CCCCCCCCO | -7.26
in NC=O | -4.31
in O | -2.29

O=c1[nH]cc(Br)c(=O)[nH]1
Conditions | solvation free energy, 298 K [kcal/mol]
in O | -18.2

CCCCCO
Conditions | solvation free energy, 298 K [kcal/mol]
in Brc1ccccc1 | -5.42
in C1CCOC1 | -6.61
in CC#N | -5.85
in CC(C)(C)O | -6.96
in CC(C)CC(C)(C)C | -4.37
in CC(C)CO | -6.85
in CC(C)O | -6.83
in CCCCCC | -4.62
in CCCCCCC | -4.48
in CCCCCCCC | -4.27
in CCCCCCCCCC | -4.16
in CCCCCCCCCCCCCCCC | -4.08
in CCCCCCCCCCO | -6.39
in CCCCCCCCO | -6.37
in CCCCCCO | -6.68
in CCCCO | -6.77
in CCCO | -6.78
in CO | -6.84
in Cc1cccc(C)c1 | -5.21
in Cc1ccccc1C | -5.21
in Clc1ccccc1 | -5.48
in NC=O | -5.65
in O | -4.56
in [2H]O[2H] | -4.61

Cc1ccccc1C(=O)O
Conditions | solvation free energy, 298 K [kcal/mol]
in C1CCOC1 | -9.3
in C1COCCO1 | -9.26
in CC(C)(C)O | -9.12
in CC(C)CCO | -8.95
in CC(C)CO | -8.82
in CC(C)O | -9.06
in CC(C)OC(C)C | -8.56
in CCC(C)O | -9.01
in CCCC(C)O | -8.98
in CCCCCCCCCCO | -8.7
in CCCCCCCCO | -8.76
in CCCCCCCO | -8.81
in CCCCCCO | -8.86
in CCCCCO | -8.91
in CCCCCOC(C)=O | -8.7
in CCCCO | -8.96
in CCCCOC(C)=O | -8.76
in CCCO | -9.01
in CCO | -9.12
in CCOC(C)=O | -8.91
in CCOCC | -8.95
in COC(C)=O | -8.92
in O | -5.87

c1ccsc1
Conditions | solvation free energy, 298 K [kcal/mol]
in CC(C)O | -3.75
in CCCCCCC | -4.09
in CCCO | -3.71
in CN1CCCC1=O | -4.68
in O | -1.39
in O=CN1CCOCC1 | -4.39
in c1ccccc1 | -4.65

Cc1ccc(C)c(C)c1
Conditions | solvation free energy, 298 K [kcal/mol]
in O | -0.83

Cc1cc(C)c2ccccc2c1
Conditions | solvation free energy, 298 K [kcal/mol]
in O | -2.47

CCCCOC(=O)c1ccccc1C(=O)OC(CC)CCCC (configuration not stated)
Conditions | solvation free energy, 298 K [kcal/mol]
in O | -6.71
